The record followed here is ChEMBL document CHEMBL1148847, “Synthesis of 3-(1H-benzimidazol-2-yl)-5-isoquinolin-4-ylpyrazolo[1,2-b]pyridine, a potent cyclin dependent kinase 1 (CDK1) inhibitor” (Bioorg Med Chem Lett, 2007).

In general, IC50 refers to the concentration that gives 50% inhibition. High values mean lower potency, low ones higher potency.

Test [1] in a line: Inhibition of CDK1/Cyclin B by Flashplate assay. Details: species or system Homo sapiens.
For test [2], the target named is Vascular endothelial growth factor receptor 2 (Homo sapiens, UniProt P35968). Put plainly: Inhibition of VEGFR2.
Chain of Vascular endothelial growth factor receptor 2 (P35968 whole entry): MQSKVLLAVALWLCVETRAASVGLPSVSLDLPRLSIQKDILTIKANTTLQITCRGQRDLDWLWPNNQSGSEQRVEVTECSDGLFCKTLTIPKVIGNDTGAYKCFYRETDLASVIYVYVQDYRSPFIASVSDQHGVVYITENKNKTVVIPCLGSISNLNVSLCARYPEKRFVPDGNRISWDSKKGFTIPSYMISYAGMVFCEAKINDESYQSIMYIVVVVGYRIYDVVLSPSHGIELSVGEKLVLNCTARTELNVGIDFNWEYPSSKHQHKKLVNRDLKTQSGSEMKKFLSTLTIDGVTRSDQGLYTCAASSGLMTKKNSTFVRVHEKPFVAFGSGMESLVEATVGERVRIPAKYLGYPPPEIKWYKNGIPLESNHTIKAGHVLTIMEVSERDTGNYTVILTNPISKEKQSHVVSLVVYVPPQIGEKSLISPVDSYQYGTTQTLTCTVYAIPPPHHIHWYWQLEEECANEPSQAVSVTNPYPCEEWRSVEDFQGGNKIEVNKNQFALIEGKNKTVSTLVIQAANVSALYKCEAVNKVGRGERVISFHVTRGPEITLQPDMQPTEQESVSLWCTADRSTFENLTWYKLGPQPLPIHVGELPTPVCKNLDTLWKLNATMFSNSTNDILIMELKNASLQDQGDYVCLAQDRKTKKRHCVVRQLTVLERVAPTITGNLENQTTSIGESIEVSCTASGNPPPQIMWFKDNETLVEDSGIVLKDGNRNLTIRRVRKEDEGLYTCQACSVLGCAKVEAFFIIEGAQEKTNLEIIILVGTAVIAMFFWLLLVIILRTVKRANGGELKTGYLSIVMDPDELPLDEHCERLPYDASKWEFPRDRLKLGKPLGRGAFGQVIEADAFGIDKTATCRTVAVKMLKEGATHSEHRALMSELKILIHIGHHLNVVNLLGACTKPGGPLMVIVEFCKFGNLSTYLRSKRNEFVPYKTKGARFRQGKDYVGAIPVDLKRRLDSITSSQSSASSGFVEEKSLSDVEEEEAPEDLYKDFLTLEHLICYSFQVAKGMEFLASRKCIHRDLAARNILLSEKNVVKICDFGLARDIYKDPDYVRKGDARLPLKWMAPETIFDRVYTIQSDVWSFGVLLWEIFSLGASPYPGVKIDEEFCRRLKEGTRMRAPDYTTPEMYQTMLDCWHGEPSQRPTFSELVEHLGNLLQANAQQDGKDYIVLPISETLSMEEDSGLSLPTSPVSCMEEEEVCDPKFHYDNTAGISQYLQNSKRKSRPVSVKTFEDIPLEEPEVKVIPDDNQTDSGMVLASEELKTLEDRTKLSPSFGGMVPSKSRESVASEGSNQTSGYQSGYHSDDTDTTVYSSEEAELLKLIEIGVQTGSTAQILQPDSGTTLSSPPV

For `c1ccc2c(-c3cnc4[nH]nc(-c5nc6ccccc6[nH]5)c4c3)cncc2c1`, the IC50 in test [1] amounted to 23 nM; in test [2], 1460 nM.
